In patent US20200352907A1, “Use Of Carbamate Compound For Preventing, Alleviating Or Treating Absence Seizure Or Epilepsy Showing Absence Seizure” (SK BIOPHARMACEUTICALS CO., LTD., priority 2017, published 2020):

Legend:
GAERS model rats = settings: known from literature; cited from earlier work
[1] = test system: GAERS (Genetic Absence Epilepsy Rat from Strasbourg) model; assay: Efficacy test in GAERS model rats: EEG analysis of spike-and-wave discharges (SWD); type: in vivo; settings: for cumulated duration of SWD / number of occurrences of SWD: 20-minute intervals 10-90 min after administration, 2-way ANOVA vs vehicle; for cumulated duration of SWD, total effect for 1 hour after administration / number of occurrences of SWD, total effect for 1 hour after administration: 1-way ANOVA vs vehicle, effect similar to valproate 150 and 200 mg/kg
Procedure: Twelve 5-week-old GAERS model rats were purchased from the Grenoble Institute of Neurosciences, France. After purchase, the rats were bred at a temperature of 21±2° C. under conditions of free access to food and water, and controlled light (illuminated from 8 am to 8 pm), and the condition was maintained for 2 months prior to surgery.
EEG electrodes were implanted into twelve 3-month-old GAERS rats. Stereotaxic implantation was performed under anesthesia with isoflurane (2% concentration in oxygen). The rats were fixed to the stereotaxic frame and surgery was performed while observing body temperature. An ophthalmic gel was used to prevent drying of the cornea. After cutting the hair of the incision site, it was disinfected with povidone, and after incision, four holes were drilled using a drill at the frontal cortical and parietal cortical positions of both hemispheres of the open skull. Monopolar electrodes were placed in these holes and then connected to a female connector fixed to the skull for EEG recording. The incision site was then sutured. After surgery, buprenorphine was injected subcutaneously at a dose of 0.1 mg/kg, and the anesthetic was removed and observed until recovery of consciousness. After that, the rats were kept in a cage for recovery for a week.
One week after the electrode implantation, preliminary EEG measurements of 1 hour were performed on all 12 animals, and 10 animals showing enough signal-to-noise suitable for detecting generation of SWD were selected.
Test compound and positive control drug were prepared immediately before administration. Carbamic acid (R)-1-(2-chlorophenyl)-2-tetrazol-2-yl-ethyl ester prepared in the above preparation example was used as the test compound which was dissolved in 30% (volume/volume) PEG300 (81164-14, Sigma-Aldrich), and the positive control valproate (P4543, Sigma-Aldrich) was dissolved in 0.9% sterile saline (Cooper, France). Both drugs were administered intraperitoneally at a dose of 5 ml/kg. 30% PEG300 was used for vehicle administration as the negative control.
The test was done in a cross-over method, with a minimum interval of 71 hours between each administration for wash-out of the drug. In the first stage test, the following conditions were administered. • Vehicle (30% PEG300) • Valproate 200 mg/kg • Test compound 5 mg/kg • Test compound 10 mg/kg • Test compound 20 mg/kg
In the second stage test, the following conditions were administered. • Valproate 150 mg/kg • Test compound 30 mg/kg
For EEG recording, 10 GAERS rats were placed in a recording chamber and then connected to a wire for EEG recording. After an hour of habituation process, EEG recordings of free-moving animals were performed. As a baseline phase, 20 minutes of recording were performed before drug administration, and 90 minutes of recording were performed after drug administration, using SystemPlus Evolution (Micromed). During the recording, the animals were kept in a quiet wakefulness state.
The generated SWD was analyzed using the recorded EEG data, and all data analysis was performed by blind method. SWD was analyzed for the 20-minute baseline phase and for a total of 80 minutes period from 10 to 90 minutes after drug administration. The 80 minutes were analyzed by dividing them into 20-minute intervals, and the number of occurrences of SWD and the cumulated SWD duration (the cumulated duration of SWD) were analyzed.
Results were expressed as mean value ±standard error, and prism (graphpad) was used for statistical analysis. 2-way ANOVA was used for the number of occurrences of SWD and the cumulated duration of SWD over time. Bonferroni's paired comparison method was used for comparison with the baseline period, comparison with the vehicle-administered negative control and comparison with the valproate-administered positive control. […]

[2] = compared with valproate positive control

Question: Which “SWD in the GAERS model rats” value (GAERS model rats) does the source give for `CCC1(C)CC(=O)NC1=O` (stereo not shown) [ethosuximide] here?
Answer: The value was “inhibited”.

Question: With `NC(=O)O[C@@H](Cn1ncnn1)c1ccccc1Cl` [test compound, Carbamic acid (R)-1-(2-chlorophenyl)-2-tetrazol-2-yl-ethyl ester] as the molecule, how does the “effect duration (cumulated duration of SWD)” value [1, 2] read?
Answer: The value was “longer duration than valproate”.

Question: And the “effect duration (number of occurrences of SWD)” value [1, 2]?
Answer: The value was “longer duration than valproate”.

Question: What about the “cumulated duration of SWD” value ([1]; test compound 10 mg/kg i.p.) of the same molecule?
Answer: Its value is “significant reduction effect in the 30-50 min and 50-70 min intervals after administration”.

Question: What about the “number of occurrences of SWD” value ([1]; test compound 10 mg/kg i.p.) of the same molecule?
Answer: The value was “significance in the 30 to 50 min interval after administration”.

Question: And the “cumulated duration of SWD, total effect for 1 hour after administration” value ([1]; test compound 20 mg/kg i.p.)?
Answer: Its value is “significantly reduced the cumulated duration of SWD compared to the vehicle administration group”.

Question: What about the “number of occurrences of SWD, total effect for 1 hour after administration” value ([1]; test compound 20 mg/kg i.p.) of the same molecule?
Answer: Its value is “significantly reduced the number of occurrences of SWD compared to the vehicle administration group”.

Question: What about the “cumulated duration of SWD” value ([1]; test compound 20 mg/kg i.p.) of the same molecule?
Answer: Its value is “significant reduction effect in the 30-90 min interval after administration”.

Question: And the “number of occurrences of SWD” value ([1]; test compound 20 mg/kg i.p.)?
Answer: The value was “significance in the 30 to 90 min interval after administration”.

Question: What about the “cumulated duration of SWD, total effect for 1 hour after administration” value ([1]; test compound 30 mg/kg i.p.) of the same molecule?
Answer: Its value is “significantly reduced the cumulated duration of SWD compared to the vehicle administration group”.

Question: And the “number of occurrences of SWD, total effect for 1 hour after administration” value ([1]; test compound 30 mg/kg i.p.)?
Answer: Its value is “significantly reduced the number of occurrences of SWD compared to the vehicle administration group”.

Question: What about the “cumulated duration of SWD” value ([1]; test compound 30 mg/kg i.p.) of the same molecule?
Answer: Its value is “significant reduction effect in the entire period after administration”.

Question: What about the “number of occurrences of SWD” value ([1]; test compound 30 mg/kg i.p.) of the same molecule?
Answer: Its value is “significance in the entire period after administration”.
